Data from PubChem BioAssay (NCI).
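Values below derive from 48-hour exposures of cells grown in 96-well plates, with endpoints linearly interpolated between the two concentrations bracketing the appropriate inhibition level. The concentration for 50% growth inhibition is given as GI50. TGI: total growth inhibition.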

Tests used:
Experiment in all cases: NCI-60 cell line screen, 48 h
[1] = tested on: SNB-75 CNS
[2] = tested on: M14 melanoma
[3] = tested on: RXF 393 renal
[4] = tested on: SR leukemia
[5] = tested on: SN12C renal
[6] = tested on: TK-10 renal
[7] = tested on: MDA-MB-231 breast
[8] = tested on: MALME-3M melanoma
[9] = tested on: UO-31 renal
[10] = tested on: DU-145 prostate
[11] = tested on: ACHN renal
[12] = tested on: OVCAR-4 ovarian
[13] = tested on: HOP-92 NSCLC
[14] = tested on: SF-295 CNS
[15] = tested on: HCT-116 colon
[16] = tested on: NCI-H226 lung
[17] = tested on: MCF7 breast
[18] = tested on: SNB-19 CNS
[19] = tested on: SK-MEL-2 melanoma
[20] = tested on: OVCAR-8 ovarian
[21] = tested on: SF-268 CNS
[22] = tested on: HL-60(TB) leukemia
[23] = tested on: RPMI-8226 leukemia
[24] = tested on: NCI-H23 lung
[25] = tested on: OVCAR-5 ovarian
[26] = tested on: CCRF-CEM leukemia
[27] = tested on: PC-3 prostate
[28] = tested on: KM12 colon
[29] = tested on: K-562 leukemia
[30] = tested on: A549 NSCLC
[31] = tested on: U251 CNS
[32] = tested on: MDA-MB-435
[33] = tested on: COLO 205 colon
[34] = tested on: T-47D breast
[35] = tested on: SW-620 colon
[36] = tested on: SF-539 CNS
[37] = tested on: NCI-H522 lung
[38] = tested on: IGROV1 ovarian
[39] = tested on: BT-549 breast
[40] = tested on: SK-OV-3 ovarian
[41] = tested on: A498 renal
[42] = tested on: HT29 colon
[43] = tested on: NCI/ADR-RES ovarian
[44] = tested on: MOLT-4 leukemia
[45] = tested on: UACC-257 melanoma
[46] = tested on: OVCAR-3 ovarian
[47] = tested on: HCC-2998 colon
[48] = tested on: LOX IMVI melanoma
[49] = tested on: 786-0 renal
[50] = tested on: HS 578T breast
[51] = tested on: NCI-H460 lung
[52] = tested on: HOP-62 NSCLC
[53] = tested on: EKVX NSCLC
[54] = tested on: CAKI-1 renal
[55] = tested on: SK-MEL-5 melanoma
[56] = tested on: UACC-62 melanoma
[57] = tested on: HCT-15 colon

Work on `NC1=Nc2cc(OCCCCN3Cc4ccccc4C3)c(OCC3CC3)cc2C12CCCC2` yielded a GI50 [1] of 1190 nM, a TGI [1] of 2480 nM and a GI50 [2] of 1770 nM. It also gave a TGI [2] of 3510 nM, a GI50 [3] of 1220 nM and a TGI [3] of 2600 nM. The GI50 [4] was 1610 nM, the TGI [4] was 4480 nM and the GI50 [5] was 1700 nM. It also gave a TGI [5] of 3410 nM, a GI50 [6] of 1750 nM and a TGI [6] of 3450 nM. It also gave a GI50 [7] of 1550 nM, a TGI [7] of 3020 nM and a GI50 [8] of 1630 nM. It also gave a TGI [8] of 3120 nM, a GI50 [9] of 1460 nM and a TGI [9] of 2880 nM. It also gave a GI50 [10] of 3240 nM, a TGI [10] of 11400 nM and a GI50 [11] of 1710 nM. It also gave a TGI [11] of 3240 nM, a GI50 [12] of 3110 nM and a TGI [12] of 14700 nM. It also gave a GI50 [13] of 873 nM, a TGI [13] of 2710 nM and a GI50 [14] of 1940 nM. It also gave a TGI [14] of 3830 nM, a GI50 [15] of 1200 nM and a TGI [15] of 2560 nM. It also gave a GI50 [16] of 1320 nM, a TGI [16] of 3480 nM and a GI50 [17] of 1370 nM. It also gave a TGI [17] of 2990 nM, a GI50 [18] of 3280 nM and a TGI [18] of 12400 nM. The GI50 [19] was 1840 nM, the TGI [19] was 3490 nM and the GI50 [20] was 1800 nM. The TGI [20] was 4020 nM, the GI50 [21] was 1780 nM and the TGI [21] was 6420 nM. The GI50 [22] was 1730 nM, the TGI [22] was 3550 nM and the GI50 [23] was 1530 nM. It also gave a TGI [23] of 4020 nM, a GI50 [24] of 2150 nM and a TGI [24] of 5360 nM. The GI50 [25] was 2300 nM, the TGI [25] was 6400 nM and the GI50 [26] was 2480 nM. For the same compound, the TGI [26] was 9500 nM, the GI50 [27] was 1690 nM and the TGI [27] was 7810 nM. It also gave a GI50 [28] of 1720 nM, a TGI [28] of 3390 nM and a GI50 [29] of 398 nM. The TGI [29] was 1730 nM, the GI50 [30] was 1990 nM and the TGI [30] was 4840 nM. For the same compound, the GI50 [31] was 1530 nM, the TGI [31] was 3110 nM and the GI50 [32] was 1590 nM. The TGI [32] was 2990 nM, the GI50 [33] was 1450 nM and the TGI [33] was 3110 nM. For the same compound, the GI50 [34] was 1780 nM, the TGI [34] was 4290 nM and the GI50 [35] was 1700 nM. It also gave a TGI [35] of 3480 nM, a GI50 [36] of 1530 nM and a TGI [36] of 2910 nM. The GI50 [37] was 1860 nM, the TGI [37] was 3840 nM and the GI50 [38] was 1420 nM. For the same compound, the TGI [38] was 2980 nM, the GI50 [39] was 1570 nM and the TGI [39] was 3330 nM. For the same compound, the GI50 [40] was 1890 nM, the TGI [40] was 3900 nM and the GI50 [41] was 951 nM. For the same compound, the TGI [41] was 4910 nM, the GI50 [42] was 1260 nM and the TGI [42] was 3130 nM. It also gave a GI50 [43] of 1730 nM, a TGI [43] of 3410 nM and a GI50 [44] of 1880 nM. The TGI [44] was 5040 nM, the GI50 [45] was 1620 nM and the TGI [45] was 3480 nM. It also gave a GI50 [46] of 1490 nM, a TGI [46] of 3160 nM and a GI50 [47] of 1570 nM. For the same compound, the TGI [47] was 3070 nM, the GI50 [48] was 1690 nM and the TGI [48] was 3090 nM. The GI50 [49] was 1540 nM, the TGI [49] was 3030 nM and the GI50 [50] was 1490 nM. It also gave a TGI [50] of 4180 nM, a GI50 [51] of 1670 nM and a TGI [51] of 3210 nM. For the same compound, the GI50 [52] was 1630 nM, the TGI [52] was 3390 nM and the GI50 [53] was 2770 nM. For the same compound, the TGI [53] was 14500 nM, the GI50 [54] was 2100 nM and the TGI [54] was 6500 nM. For the same compound, the GI50 [55] was 1710 nM, the TGI [55] was 3100 nM and the GI50 [56] was 1690 nM. For the same compound, the TGI [56] was 3110 nM, the GI50 [57] was 1480 nM and the TGI [57] was 3590 nM.
